Measured values published in publication PMC6435698, “Keggin-type polyoxotungstates as mushroom tyrosinase inhibitors - A speciation study” (Scientific Reports, 2019).
Read-outs that look alike come from different tables or passages of the source.

How the values were obtained:
[1] = biological target: T1, abPPO4 (mushroom tyrosinase) (Agaricus bisporus, UniProt C7FF05); assay: dopachrome assay, inhibition of abPPO4 diphenolase activity; format: biochemical; conditions: for inhibitory effect on abPPO4 activity (in words): activity plots; for Inhibition type: substrate L-DOPA; for α, inhibition parameter, from Lineweaver-Burk intercepts: [b] from Lineweaver-Burk intercepts; on Ki [mM], from Dixon plots: L-DOPA 0.4–1.5 mM; on Ki [mM], from Lineweaver-Burk slopes: L-DOPA 0.4–1.5 mM
T1 construct: glutathione-S-transferase (GST) (N, cleaved yes); made in house; host or cells: E. coli BL21(DE3)
T1 sequence (C7FF05 1-379 limits assumed): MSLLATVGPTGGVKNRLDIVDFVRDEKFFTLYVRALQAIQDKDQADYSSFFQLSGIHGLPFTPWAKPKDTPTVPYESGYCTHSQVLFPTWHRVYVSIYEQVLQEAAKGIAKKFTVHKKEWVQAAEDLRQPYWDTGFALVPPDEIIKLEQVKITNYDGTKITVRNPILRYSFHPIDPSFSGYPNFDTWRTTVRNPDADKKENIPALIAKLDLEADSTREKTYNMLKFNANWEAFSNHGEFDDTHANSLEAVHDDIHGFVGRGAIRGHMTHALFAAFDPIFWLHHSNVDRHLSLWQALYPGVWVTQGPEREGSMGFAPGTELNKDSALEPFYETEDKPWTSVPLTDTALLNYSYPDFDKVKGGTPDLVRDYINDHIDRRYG
Procedure: The detailed methodology applied for kinetic evaluation is presented in the SI.
For the activity plots shown here, the ratios of reaction rates v ([I] = 0] and vapp ([I] = 0.2–14 mM) were determined from UV absorption measurements at 475 nm using the dopachrome assay. Each reaction setup contained a fixed amount of enzyme (1 µg abPPO4) in 1 mL in a plastic cuvette and the reaction buffer was 50 mM Na-citrate pH 6.8. POT stock solutions were prepared in 20 mM concentration in reaction buffer and adjusted for pH 6.8 with NaOH, if necessary. The reaction rates were extracted from the obtained absorption curves as the slope of linear fits of the steepest curve sections close to the start of the reaction over a time-range of 30 s and were determined in triplicates. The relative enzymatic activity dependent on the inhibitor concentration was fitted to a suitable hyperbolic expression (see SI for details). […] The dopachrome assay was performed exactly as described in section 3.1.1. This time, the observed reaction velocities vapp (in µmol/min) were calculated from the extracted reaction rates (in 1/s) using the extinction coefficient of dopachrome ε = 3700 M^−1 cm^−1 [62]. The so obtained data was plotted according to Lineweaver-Burk, and the slopes and ordinate intercepts of these graphs were used to extract inhibition parameters.
(The kinetic models with according mathematical expressions applied in this study are based on Copeland’s guide for enzyme kinetics[28].)
The classical Michaelis-Menten equation[28] relates the velocity v of an enzymatic reaction to the applied substrate concentration [S]:
In this equation, the Michaelis constant KM represents the substrate concentration effecting the half-maximum reaction rate vmax.
For the reported inhibition studies, we chose an expanded version of this equation (1) which accounts for all possible inhibition mechanisms and combinations thereof[28]. In general, both […]
ݒ௠௔௫,௔௣௣ = ௩೘ೌೣଵା [಺] (2)
Herein, [I] refers to the inhibitor concentration, Ki is the inhibition constant measuring the […]
The three ideal inhibition types are reflected by three limiting conditions for α:
(A) 0 < α <<1: uncompetitive inhibition
(B) α = 1: non-competitive inhibition
(C) α >> 1: competitive inhibition
Therefore, values of α < 1 often correspond to mixed-type inhibition with contributions from uncompetitive and non-competitive inhibition modes.
Insertion of expressions (2) and (3) in equation (1) leads to the final mixed-type inhibition […]
The relative enzymatic activity upon inhibition can be expressed as the ratio of the observed reaction velocity v app to the non - inhibited reaction performance v through dividing equation […]
This corresponds to a normalization of the reaction rates with respect to the non - inhibited rate. As w e were interested in the dependence of the reaction velocity on the inhibitor concentration , the substrate concentration was fixed to 1 mM L - DOPA for all activity plots.
This led to a further simplification of equation ( 1 ) : […]
Equation (6) was used as the final curve fit expression for kinetic evaluation of those POM […]
K M was set to 26.1 mM as reported for ab PPO4 by
3.2 Determination of inhibition type
3.2. 1 Kinetic evaluation using Lineweaver - Burk plots […]
linear Lineweaver - Burk [ 29 ] extrapolations. The double - reciprocal plots of 1/ v app against 1/[S] yielded straight li nes that were fitted accordingly to the corresponding ly rearranged form of […]
For simplicity, the terms for the slope m and the ordinate shift t are co mbine d in constants in […]

mushroom tyrosinase = conditions: substrate L-DOPA; cited from earlier work
[2] = system: Bacillus megaterium tyrosinase; set-up: method as in PMID 27725765; conditions: substrate L-DOPA; cited from earlier work
[3] = speciation / hydrolytic stability of POTs at pH 6.8 by 183W NMR; format: physicochemical; conditions: 183W NMR (and 31P, 27Al NMR), ca. 20 mM in 50 mM Na-citrate pH 6.8
Excerpt: ^183W NMR spectroscopy is the most widely applied and reliable technique for the structural characterization of POTs in solution as well as to monitor the progress of reaction. Hundreds of POM ^183W NMR spectra have been reported since the first ^183W NMR spectrum for [SiW11]^8− observed by Acerete et al. in[47]. The here-presented ^183W NMR analysis yielded a single signal for all intact [XW12]^n− structures (Figs 4A,D and S11–S14), reflecting the perfect tetrahedral symmetry of the Keggin α-isomer and clearly confirming the isomeric purity of the prepared POTs.
^183W NMR samples for all the POM compounds were prepared in high concentrations similar to the stock solutions used for kinetic experiments (usually about 20 mM) in 50 mM Na-citrate pH 6.8 if not stated otherwise. ^183W NMR spectra were recorded with a Bruker FT-NMR spectrometer Avance Neo 500 MHz in 10 mm tubes for a total experiment time of ca. 60 hours, using standard pulse programs at 20.836 MHz and a 63° flip angle with 1 s of relaxation delay; the temperature was kept at 25 °C. Chemical shifts were measured relative to external 1 M Na2WO4. For [PW12]^3−, [PW11]^7− and […], additional ^31P NMR spectra were taken, structures of [AlW12]^5−, [AlW11]^9− and [BeW12]^6− were confirmed by ^27Al NMR or ^9Be NMR spectroscopy, respectively. ^27Al, ^9Be and ^31P NMR spectra were recorded at 130.368, 70.273 and 202.53 MHz, respectively. Chemical shifts are given relative to Al(NO3)3, BeSO4 or 85% H3PO4.
In the ^183W NMR spectrum of [PW12]^3− at pH 6.8 (see Fig. 4E), the six most intense peaks can be assigned to six different symmetry-equivalent positions in [PW11]^7−[47],[49]. The less intense signals in the ^183W NMR spectrum can be attributed to other [PW12]^3− hydrolysis products[51] that have been identified in the ^31P NMR spectrum (Fig. S7B). […] Based on both spectra, it can be concluded that [PW11]^7− prevails in aqueous solution at pH 6.8. […] Assignment is complicated by the special pseudo-paramagnetic character of this cluster (see ^183W NMR analysis in Fig. S15, SI section 2.2.2.4).
In order to identify the tungstate species responsible for the inhibitory effect observed with the orthotungstate solution [WO4]^2−, ^183W NMR was performed in reaction buffer pH 6.8, which had to be readjusted by a few drops of 5 M HCl to compensate for the marked basicity of [WO4]^2−. […] The chemical shifts are in agreement with literature data[56]. […] The ^183W NMR spectra for the POT clusters with higher negative charges (see Figs S11–S14) show only one single signal, thereby confirming full structural integrity of the corresponding Keggin anions at pH 6.8. The lacunary cluster [AlW11]^9− evoked a rise in pH up to 8.5 upon dissolution in reaction buffer (pH 6.8) to reach a final concentration of 20 mM. […] In the [BeW12]^6− spectrum (Fig. S14), three additional signals at −147.6, −155.3 and −168.6 ppm can be seen, which were assigned to the β-Keggin isomer. The C3v symmetry of this isomer results in three shifts with intensity ratio 1:2:1, as previously observed for other β-isomers of Keggin structure. The β-isomer is commonly formed during any synthesis of Keggin clusters, but rearranged to the α-form during prolonged thermal reaction. Thus, the occurrence of the β-form in the present preparation can be ascribed to the reduced reaction time applied for the hydrothermal synthesis. […] The ^31P (cf. Fig. S8) and ^183W NMR (Fig. S15) spectra of [PW11Ni]^5− have a special character originating from the peculiar electronic configuration of Ni^2+ and were in general accordance with reference data[61]. In the presented ^183W NMR spectrum, signals from those W atoms in direct neighbourhood to the Ni^2+ center cannot be observed, which complicates unambiguous assignment to the desired substituted POT structure. However, the obtained results can be explained in the light of electronic effects. […]

[4] = expected from net charge; cited from earlier work
[5] = [a] from activity plot, 1 mM L-DOPA, 50 mM Na-citrate pH 6.8, 0–14 mM POT
[6] = [a] from activity plot, 1 mM L-DOPA, 50 mM Na-citrate pH 6.8, 0–14 mM POT, read-out: Ki [mM], from activity plot
[7] = [a] from activity plot, 1 mM L-DOPA, pH 6.8
[8] = [b] from Lineweaver-Burk slopes, L-DOPA 0.4–[…], pH 6.8, read-out: Ki [mM], from Lineweaver-Burk slopes
[9] = [c] from Dixon plots, average intersection, L-DOPA 0.4–[…], pH 6.8, read-out: Ki [mM], from Dixon plots

Compound | Ki [mM], from activity plot [1, 5] | inhibitory effect on abPPO4 activity (in words) ([1]; 1 mM L-DOPA, pH 6.8) | Inhibition type ([1]; pH 6.8) | structural integrity / hydrolysis at pH 6.8 [3] | α, inhibition parameter, from activity plot [1, 7] | α, inhibition parameter, from Lineweaver-Burk intercepts ([1]; pH 6.8) | also measured
O=[N+]([O-])[O-].O=[N+]([O-])[O-].[Ni+2] [Ni^2+, Ni(NO3)2, reference compound] | No inhibition | no inhibition effect | No inhibition | – | – | – | –
O=c1cc(CO)occ1O [kojic acid] | – | – | – | – | – | – | inhibition mode (mushroom tyrosinase): competitive; inhibition mode [2]: mixed-type
H[W7O24]^5− [heptatungstate] | – | measurable inhibition effects | – | – | – | – | –
K5[BW12O40] [[BW12]^5−] | No inhibition | – | No inhibition | retain full structural integrity | – | – | –
K5[PW11O39{Ni(H2O)}] [[PW11Ni]^5−] | – | pronounced inhibition | Mixed-type | – | 0.12 | 0.20 | Ki [1, 6]: 9.7 mM; Ki [1, 8]: 14.3 mM; Ki [1, 9]: 15 mM
K7[PW11O39] [[PW11]^7−] | – | inhibitory effect of intermediate capacity | Mixed-type | – | 0.12 | 0.17 | Ki [1, 6]: 12 mM; Ki [1, 8]: 9.9 mM; Ki [1, 9]: 9.9 mM
K8[SiW11O39] [[SiW11]^8−] | No inhibition | no enzymatic inhibition | No inhibition | – | – | – | inhibitory effect on abPPO4 activity (in words) ([1]; 1 mM L-DOPA, pH 6.8, listed as Hx[SiW11O39]^(8−x)−): ineffective
Na3[PW12O40] [[PW12]^3−] | – | markedly lower inhibition capacity | Mixed-type | full hydrolysis | 0.13 | 0.20 | –
Na5[AlW12O40] [[AlW12]^5−] | No inhibition | – | No inhibition | retain full structural integrity | – | – | –
Na6[BeW12O40] [[BeW12]^6−] | No inhibition | – | No inhibition | retain full structural integrity | – | – | stability in aqueous buffers up to pH [4]: ≤ 9 pH
Na6[H2W12O40] [[H2W12]^6−] | No inhibition | – | No inhibition | retain full structural integrity | – | – | –
Na9[AlW11O39] [[AlW11]^9−] | – | weak inhibitory capacity | Mixed-type | not stable | 0.12 | 0.31 | –
[AlW11O39{Al(H2O)}]^6− | – | weak inhibition effects | – | – | – | – | Ki [1, 6]: 54.1 mM
